Assay results taken from PMC9143880, “Improving Antimicrobial Activity and Physico-Chemical Properties by Isosteric Replacement of 2-Aminothiazole with 2-Aminooxazole” (Pharmaceuticals, 2022).
Converted amounts (≈) assume the structure as drawn. Where two headings read alike, the source gives them in different places.

Tests used:
[1] = tested on: M. avium DSM 44156 (ATCC 25291); assay: Antimycobacterial MIC, microdilution broth / resazurin; assay type: cell-based, Mycobacterium avium; details: Mycobacterium avium; resazurin after 96 h; read-out: MIC M. avium
[2] = tested on: Pseudomonas aeruginosa CCM 3955 (ATCC 27853); assay: Antibacterial microdilution broth (EUCAST); assay type: cell-based; details: 72h incubation; for MIC: Pseudomonas aeruginosa, read-out: MIC PA
[3] = RP-UHPLC lipophilicity parameter log k’w; assay type: physicochemical; details: for log k’w: RP-UHPLC, acetonitrile/water, log k extrapolated to 0% acetonitrile; for logkw: experimental lipophilicity parameter
Source text: Lipophilicity and water solubility of the drug candidates are important parameters as they are often directly related to their ADME properties in the organism. Lipophilicity is usually expressed as the logarithm of the partition coefficient in n-octanol/water (log P). Due to its laborious determination, especially in the HTS screening, other experimental methods such as RP-HPLC log k’w or purely computational approaches such as Clog P were proposed and have been established as reasonable estimators of true lipophilicity. To investigate the changes in lipophilicity upon introduction of oxazole in the title compounds, we determined the log k’w of all derivatives and compared respective values among the pairs.
The log k of the synthesized compounds was measured using the same instrument (single measurement per concentration), software, and column as was used in the purity evaluation. Working solutions were diluted as described above for purity determination. The log k parameter was calculated after the UHPLC measurements using isocratic mode with mobile phase acetonitrile (B)/water (A) in a set of concentrations of 40, 45, 50% and 20, 30, 40% B for subtype I and subtype II, respectively.

[4] = tested on: Staphylococcus aureus subsp. aureus CCM 4223 (ATCC 29213); assay: Antibacterial microdilution broth (EUCAST); assay type: cell-based; details: 24h incubation; for MIC: Staphylococcus aureus, read-out: MIC SA
[5] = tested on: Candida albicans CCM 8320 (ATCC 24433); assay: Antifungal microdilution broth (EUCAST); details: for MIC: Candida albicans, 24 h, read-out: MIC CA
[6] = tested on: Mycobacterium tuberculosis H37Ra ITM-M006710 (ATCC 9431); assay: Antimycobacterial MIC, microdilution broth / Alamar Blue (resazurin); assay type: cell-based; details: Mycobacterium tuberculosis, 120 h, Middlebrook 7H9, resazurin after 120 h; read-out: Mtb H37Ra MIC
[7] = tested on: Acinetobacter baumannii DSM 30007 (ATCC 19606); assay: Antibacterial microdilution broth (EUCAST); assay type: cell-based; details: 24h incubation; for MIC: Acinetobacter baumannii, read-out: MIC AB
HepG2 cells = assay: HepG2 cytotoxicity screening (CellTiter 96); assay type: cell-based, human; details: Homo sapiens, HepG2, 24 h, 24 h incubation, CellTiter 96; * above highest tested concentration; ** limited by insolubility in medium
[8] = tested on: Enterococcus faecalis CCM 4224 (ATCC 29212); assay: Antibacterial microdilution broth (EUCAST); assay type: cell-based; details: 24h incubation; for MIC: Enterococcus faecalis, read-out: MIC EF
[9] = tested on: Candida krusei CCM 8271 (ATCC 6258); assay: Antifungal microdilution broth (EUCAST); details: for MIC: Pichia kudriavzevii, 24 h, read-out: MIC CK
[10] = tested on: M. aurum DSM 43999 (ATCC 23366); assay: Antimycobacterial MIC, microdilution broth / resazurin; assay type: cell-based; details: Mycolicibacterium aurum; resazurin after 72 h; read-out: MIC M. aurum
[11] = tested on: Lichtheimia corymbifera CCM 8077; assay: Antifungal microdilution broth (EUCAST); details: for MIC: Lichtheimia corymbifera, CCM8077, 24 h, read-out: MIC LC
[12] = tested on: M. smegmatis DSM 43465 (ATCC 607); assay: Antimycobacterial MIC, microdilution broth / resazurin; assay type: cell-based; details: Mycolicibacterium smegmatis; resazurin after 48 h; read-out: MIC M. smegmatis
[13] = tested on: Candida tropicalis CCM 8264 (ATCC 750); assay: Antifungal microdilution broth (EUCAST); details: for MIC: Candida tropicalis, 24 h, read-out: MIC CT
[14] = tested on: Candida parapsilosis CCM 8260 (ATCC 22019); assay: Antifungal microdilution broth (EUCAST); details: for MIC: Lodderomyces parapsilosis, 24 h, read-out: MIC CP
[15] = tested on: Staphylococcus aureus subsp. aureus (MRSA) CCM 4750 (ATCC 43300); assay: Antibacterial microdilution broth (EUCAST); assay type: cell-based; details: 24h incubation; for MIC: Staphylococcus aureus, read-out: MIC MRSA
[16] = tested on: Aspergillus flavus CCM 8363; assay: Antifungal microdilution broth (EUCAST); details: for MIC: Aspergillus flavus, CCM8363, 24 h, read-out: MIC AFla
[17] = tested on: Staphylococcus epidermidis CCM 4418 (ATCC 12228); assay: Antibacterial microdilution broth (EUCAST); assay type: cell-based; details: 24h incubation; for MIC: Staphylococcus epidermidis, read-out: MIC SE
[18] = tested on: Aspergillus fumigatus ATCC 204305; assay: Antifungal microdilution broth (EUCAST); details: for MIC: Aspergillus fumigatus, ATCC204305, 24 h, read-out: MIC AF
[19] = tested on: Escherichia coli CCM 3954 (ATCC 25922); assay: Antibacterial microdilution broth (EUCAST); assay type: cell-based; details: 24h incubation; for MIC: Escherichia coli, read-out: MIC EC
[20] = tested on: M. kansasii DSM 44162 (ATCC 12478); assay: Antimycobacterial MIC, microdilution broth / resazurin; assay type: cell-based; details: Mycobacterium kansasii, read-out: MIC M. kansasii
[21] = tested on: Trichophyton interdigitale CCM 8377 (ATCC 9533); assay: Antifungal microdilution broth (EUCAST); details: for MIC: Trichophyton interdigitale, 72 h, read-out: MIC TI

Cc1cncc(C(=O)Nc2nc(-c3ccccc3)co2)c1 [Compound 14b]
MIC [1]: ≥ 250 µg/mL
MIC [2]: > 250 µM
log k’w [3]: 1.478
logkw [3]: 1.478
MIC [4]: 250 µM (≈ 69.8 µg/mL)
MIC [5]: > 500 µM
MIC [6]: ≥ 250 µg/mL
MIC [7]: > 250 µM
melting point: 258.6 °C
IC50 (HepG2 cells): > 100 µM
MIC [8]: > 250 µM
MIC [9]: > 500 µM
MIC [10]: ≥ 250 µg/mL
MIC [11]: > 500 µM
MIC [12]: ≥ 250 µg/mL
MIC [13]: > 500 µM
MIC [14]: > 500 µM
MIC [15]: 250 µM (≈ 69.8 µg/mL)
MIC [16]: > 500 µM
MIC [17]: 250 µM (≈ 69.8 µg/mL)
MIC [18]: > 500 µM
MIC [19]: > 250 µM
MIC ([20]; resazurin after 96 h): ≥ 250 µg/mL
MIC [21]: > 500 µM

O=C(Nc1nc(-c2ccccc2)co1)c1cnccn1 [Compound 17b]
MIC [1]: ≥ 500 µg/mL
MIC [2]: > 500 µM
log k’w [3]: 1.306
logkw [3]: 1.306
MIC [4]: > 500 µM
MIC [5]: > 500 µM
MIC [6]: 15.6 µg/mL (≈ 58.7 µM)
MIC [7]: > 500 µM
melting point: 140 to 142 °C
IC50 (HepG2 cells): > 1000 µM
MIC [8]: > 500 µM
MIC [9]: > 500 µM
MIC [10]: 125 µg/mL (≈ 469 µM)
MIC [11]: > 500 µM
MIC [12]: ≥ 500 µg/mL
MIC [13]: > 500 µM
MIC [14]: > 500 µM
MIC [15]: > 500 µM
MIC [16]: > 500 µM
MIC [17]: > 500 µM
MIC [18]: > 500 µM
MIC [19]: > 500 µM
MIC ([20]; 96 h): 15.6 µg/mL (≈ 58.7 µM)
MIC [21]: > 500 µM

O=C(Nc1nc(-c2ccccc2)co1)c1cnc(Cl)cn1 [Compound 18b]
MIC [1]: 62.5 µg/mL (≈ 208 µM)
MIC PA [2]: insoluble
log k’w [3]: 2.073
logkw [3]: 2.073
MIC SA [4]: insoluble
MIC CA ([5]; 24h incubation): insoluble
MIC [6]: 15.6 µg/mL (≈ 52 µM)
MIC AB [7]: insoluble
melting point: 203 to 207 °C
IC50 (HepG2 cells): > 100 µM
MIC EF [8]: insoluble
MIC CK ([9]; 24h incubation): insoluble
MIC [10]: 125 µg/mL (≈ 416 µM)
MIC LC ([11]; 24h incubation): insoluble
MIC [12]: ≥ 500 µg/mL
MIC CT ([13]; 24h incubation): insoluble
MIC CP ([14]; 24h incubation): insoluble
MIC MRSA [15]: insoluble
MIC AFla ([16]; 24h incubation): insoluble
MIC SE [17]: insoluble
MIC AF ([18]; 24h incubation): insoluble
MIC EC [19]: insoluble
MIC ([20]; 96 h): 15.6 µg/mL (≈ 52 µM)
MIC TI ([21]; 72h incubation): insoluble

O=C(Nc1nc(-c2ccccc2)co1)c1ccccc1 [Compound 20b]
MIC [1]: 31.2 µg/mL (≈ 118 µM)
MIC [2]: > 500 µM
log k’w [3]: 2.090
MIC [4]: 250 µM (≈ 66.1 µg/mL)
MIC [5]: 500 µM (≈ 132 µg/mL)
MIC [6]: 62.5 µg/mL (≈ 236 µM)
MIC [7]: 500 µM (≈ 132 µg/mL)
melting point: 143 to 145 °C
IC50 (HepG2 cells): 330 µM
MIC [8]: > 500 µM
MIC [9]: 500 µM (≈ 132 µg/mL)
MIC [10]: 31.2 µg/mL (≈ 118 µM)
MIC [11]: 500 µM (≈ 132 µg/mL)
MIC [12]: 125 µg/mL (≈ 473 µM)
MIC [13]: 500 µM (≈ 132 µg/mL)
MIC [14]: 500 µM (≈ 132 µg/mL)
MIC [15]: 500 µM (≈ 132 µg/mL)
MIC [16]: 500 µM (≈ 132 µg/mL)
MIC [17]: 250 µM (≈ 66.1 µg/mL)
MIC [18]: 500 µM (≈ 132 µg/mL)
MIC [19]: > 500 µM
MIC ([20]; resazurin after 96 h): 31.2 µg/mL (≈ 118 µM)
MIC [21]: 250 µM (≈ 66.1 µg/mL)
